pEC50, pIC50: −log10 of the molar value.
How the values were obtained:
[1] = test system: Panc-1 cells; assay: Western blot analysis of Panc-1 lysates; assay type: cell-based
Procedure: Whole-cell lysates were made by subjecting AS-10 treated Panc-1 cells to RIPA lysis buffer (Thermo Scientific, USA) containing protease (Roche, USA) and phosphatase inhibitor cocktails (Sigma-Aldrich, USA) (Plano et al., 2016, J. Med. Chem. 1946-1959). Lysates were spun at 15,000 rpm for 10 minutes. Resulting supernatant was stored at −80° C. until use. NuPAGE gel 4-12% (Life Technologies, Carlsbad, Calif.) was used to resolve the lysates, followed by electro-transfer to PVDF membrane. After the transfer membrane was blocked with 5% non-fat milk and probed with different antibodies. Protein of interest were detected by using enhanced Chemiluminescent reagent (Life technologies, USA). Blots were stripped using Restore Western blot stripping buffer (Thermo Scientific, USA) to save time and samples.

[2] = test system: pancreatic cancer cells; assay: MTT cell viability assay, pancreatic cancer (PC) cells; assay type: cell-based; conditions: Pancreatic cancer cell
Procedure: MTT (3-(4,5-dimethylthiazol-2-yl)-2,5-diphenyltetrazolium) assay was performed to determine the effect of AS-10 on cancer cell viability (Plano et al., 2016, J. Med. Chem. 1946-1959; Alcolea et al., 2012, Eur. J. Med. Chem. 113:134-144; Kumar et al., 2014, Eur. J. Med. Chem. 81:267-276). Briefly, 3×10^3 cells were treated with different concentrations of AS-10 in triplicate in a 96-well plate for different time points. MTT solution (20 μL of 5.0 mg/mL solution) was added to each well, three hours prior to termination time point and incubated at 37° C. Resultant formazan crystals, at termination time point, were dissolved in 50 μL DMSO. The plate was subjected to a 96-well multiscanner (Dynex Technologies, MRX Revelation; Chantilly, Va., USA) for measuring the optical densities at 570 nm and 630 nm. IC50 values were determined by performing non-linear regression using Graphpad Prism software.

[3] = test system: Panc-1 cells; assay: Live/dead assay with calcein-AM and ethidium bromide; assay type: cell-based; conditions: Panc-1, 48 h; AS-10 2.5 μM, gemcitabine 50 μM
Procedure: To determine the dead cell population, we used LIVE/DEAD Viability/Cytotoxicity Kit (L3224, Life technologies, USA). Panc-1 cells were treated with either DMSO, gemcitabine (50 μM), or AS-10 (2.5 μM) or in combination for 48 h. Live and dead cells were determined by subjecting treated cells to LIVE/DEAD Viability/Cytotoxicity Kit (Plano et al., 2016, J. Med. Chem. 1946-1959). […] While ethidium homodimer-1 can only enter cells who have lost their plasma membrane integrity or dead cells and fluorescents red. Stained cells were visualized using a fluorescence microscope (Zeiss—Axio Scope.A1) with a 20× objective lens. Percentage values of live and dead cells were calculated.

[4] = test system: prostate cancer cells (LnCAP, PC-3 and DU-145); assay: Apoptosis in prostate cancer cells; assay type: cell-based
[5] = test system: Panc-1 cells; assay: Muse Live/dead Annexin V assay; assay type: cell-based; conditions: Panc-1, 48 h; AS-10 2.5 μM, gemcitabine 50 μM
Procedure: Muse Annexin V & Dead Cell kit was used to determine the apoptosis cells in AS-10 treated Panc-1 cells (Plano et al., 2016, J. Med. Chem. 1946-1959). The Muse Annexin V & Dead cell assay contains Annexin V to detect phosphatidylserine (PS) on the outer surface of cells. The kit also contains a dead cell marker, 7-amino-actinomycin D (7-AAD). […] In brief, Panc-1 (1.5×10^5) cells were treated with a given dose of AS-10 or DMSO for appropriate time (0, 6, 12, 24, 36, or 48 h). Both floating cells as well as adherent cells were collected and subjected for Annexin V staining using Muse Annexin V & Dead Cell kit with Muse cell analyzer (EMD Millipore, Billerica, Mass., USA). The obtained data were analyzed using Muse 1.4 software.

[6] = test system: androgen receptor (AR) signaling in LNCaP cells; assay: AR / PSA and DNA damage response proteins in LNCaP cells; assay type: cell-based
[7] = Maximum tolerated dose (MTD) / toxicology studies in mice
[8] = test system: HCT116 colon cancer xenograft; assay: Colon cancer xenograft tumor inhibition; assay type: in vivo
Procedure: Athymic nude mice were used to evaluate the tumor inhibitory effect of AS-10 against a xenograft model of colon cancer. Approximately, 5×10^6 cells (HCT116) were inoculated into both left and right flanks of mice. After eight days, vehicle (DMSO) or AS-10 (45.2 mg/Kg) were injected via IP injection three times per week for 18 days.

[9] = test system: NCI-60 Human Tumor Cell Lines; assay: NCI-60 Human Tumor Cell Lines Screen; assay type: cell-based
Procedure: AS-10 was submitted for National Cancer Institute's (NCI) Division of Cancer Treatment and Diagnosis (DCTD) for a single dose (10 μM for 72 h) screening on 60 different cancer cell lines (NCI-60 Human Tumor Cell Lines Screen, Developmental Therapeutic Program). The panel of cell lines included leukemia, non-small cell lung, colon, CNS, melanoma, ovarian, renal, prostate and breast cancer cell lines. […] AS-10 was screened against the same 60 cell lines at a dose of 0, 0.01, 0.1, 1, 10 and 100 μM for 72 h. […] Cell lines are grouped by the cancer type they represent. […] FIG. 16 is the tabular format of the effects of AS-10 on growth of all the tested cell lines.

SMILES: CC(=O)Oc1ccccc1C(=O)/N=C1\[Se]CCN1C(=O)c1ccccc1OC(C)=O [AS-10, 2-((3-(2-acetoxybenzoyl)-1,3-selenazolidin-2-ylidene)carbamoyl)phenyl acetate]
- cleaved caspase 8 (active) [1]: not detected
- cleavage of caspase 9 ([1]; 10 μM): profound cleavage
- acetylation of histones H3 and H4 ([1]; 10 μM, increasing time points): able to acetylate histones
- cell cycle arrest proteins p21 and p27 ([1]; 10 μM, from 6 h for p21 and 12 h for p27): increase
- PARP cleavage ([1]; Panc-1, 48 h, low dose AS-10 2.5 μM, gemcitabine 50 μM): no effect on PARP cleavage
- IκBα degradation ([1]; cytosolic lysates, TNF-α stimulation, increasing dose): IκBα is not degraded
- active caspase 3 (cleaved caspase 3) and cleaved PARP ([1]; increasing concentration, 24 h): increase
- expression of Bcl-xL and Mcl-1 ([1]; time dependent): inhibited the expression
- pEC50 ([2]; in vitro, read-out: EC50, reduction of PC cell growth): 5.30 to 5.60
- pIC50 ([2]; read-out: IC50, cytotoxicity to pancreatic cancer cells): 5.60 to 6.30
- dead cells [3]: ~10%
- Annexin V staining, caspase 3/7 activity, and PARP cleavage ([4]; LNCaP): increased
- apoptosis induction in prostate cancer cells ([4]; LnCAP, PC-3 and DU-145): effective at inducing apoptosis in all prostate cancer cells tested
- total apoptotic cells [5]: ~25%
- prostate specific antigen (PSA) in cell culture media of LnCAP cells [6]: inhibited
- androgen receptor (AR) level ([6]; LNCaP): down regulated
- expression of p21 and p-H2A.X ([6]; LNCaP): increased the expression
- protein level of AR and PSA (Western blot) ([6]; LNCaP, concentration-dependent): decreased protein level
- safety margin, preliminary toxicology study in mice ([7]; mouse, in vivo): wide safety margin
- tolerability of AS-10 relative to Asp-SeCN (MTD) ([7]; nude mice): ~5 times
- MTD ([7]; nude, mouse, in vivo, ip): ~80 mg/kg
- systemic toxicity from body weights of mice ([8]; 45.2 mg/Kg IP three times per week for 18 days): no apparent no systemic toxicity
- tumor growth inhibition compared to vehicle treated mice ([8]; 45.2 mg/kg IP three times per week for 18 days, athymic nude mice): ~70%
- selectivity among NCI-60 cell types ([9]; 0.01-100 μM, 72 h): most cytotoxic towards CNS, melanoma and renal cancer cell lines
- cell growth of NCI-60 cell lines ([9]; single dose 10 μM for 72 h): inhibited cell growth of all 60 cell lines
